Source: patent publication US9469645B2, “Compounds and compositions for the treatment of parasitic diseases” (Novartis AG, priority 2009, dated 2016)
pEC50: −log10 of the molar value.

What was measured:
[1] = system: W2 strain; experiment: parasite proliferation assay in infected red blood cells (SYBR Green I), W2 strain; type: cell-based; conditions: Erythrocyte
Description: Compounds of the invention can be assayed to measure their capacity to inhibit proliferation of parasitemia in infected red blood cells. The proliferation is quantified by the addition of SYBR Green I (INVITROGEN)® dye which has a high affinity for double stranded DNA.

[2] = system: 3D7 P. falciparum strain; experiment: parasite proliferation assay in infected red blood cells (SYBR Green I); type: cell-based, Plasmodium falciparum; conditions: Plasmodium falciparum, 3D7, Erythrocyte, 3D7 strain; read-out: EC50 3D7 strain
In short: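 P. falciparum 3D7 grown in O+ human erythrocytes to 3–8% parasitemia and exposed to compounds. Proliferation read as the increase in parasite DNA. Detection used SYBR Green I in saponin/triton-X/EDTA lysis buffer, with overnight lysis at room temperature.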

SMILES	pEC50 [1]	pEC50 [2]
CN[C@@H](Cc1ccccc1)C(=O)N1CCn2c(nc(-c3ccc(F)cc3)c2Nc2ccc(C)cc2)C1 [Compound 149]	7.96	7.70
Cc1ccc(Nc2c(-c3ccc(F)cc3)nc3n2CCN(C(=O)[C@H](CCC(=O)OCc2ccccc2)NC(=O)OC(C)(C)C)C3)cc1 [Compound 150]	6.17	6.02
Cc1ccc(Nc2c(-c3ccc(F)cc3)nc3n2CCN(C(=O)[C@H](CC(=O)OCc2ccccc2)NC(=O)OC(C)(C)C)C3)cc1 [Compound 151]	6.41	6.09
Cc1ccc(Nc2c(-c3ccc(F)cc3)nc3n2CCN(C(=O)[C@H](CCCCNC(=O)OC(C)(C)C)NC(=O)OCc2ccccc2)C3)cc1 [Compound 152]	6.06	5.41
Cc1ccc(Nc2c(-c3ccc(F)cc3)nc3n2CCN(C(=O)CNC2CC2)C3)cc1 [Compound 153]	7.49	7.22
CC(=O)NCCCCNCC(=O)N1CCn2c(nc(-c3ccc(F)cc3)c2Nc2ccc(C)cc2)C1 [Compound 154]	5.47	5.37
Cc1ccc(Nc2c(-c3ccc(F)cc3)nc3n2CCN(CCN2CCn4c(nc(-c5ccc(F)cc5)c4Nc4ccc(C)cc4)C2)C3)cc1 [Compound 155]	6.31	5.67
Cc1ccc(Nc2c(-c3ccc(F)cc3)nc3n2CCN(C(=O)[C@@H](N)CCCCN)C3)cc1 [Compound 156]	6.34	5.74
Cc1ccc(Nc2c(-c3ccc(F)cc3)nc3n2CCN(C(=O)[C@@H](N)Cc2ccc(N)cc2)C3)cc1 [Compound 157]	7.01	7.00
CCCC(=O)NCCCC[C@H](N)C(=O)N1CCn2c(nc(-c3ccc(F)cc3)c2Nc2ccc(C)cc2)C1 [Compound 158]	5.32	5.12
Cc1ccc(Nc2c(-c3ccc(F)cc3)nc3n2CCN(C(=O)[C@@H](N)CCCCNC(=O)CCOCCOCCOCCOCCNC(=O)CCCCC2SCC4NC(=O)NC42)C3)cc1 (some centres unmarked) [Compound 159]	5.54	5.24
CC(=O)Nc1ccc(C[C@H](N)C(=O)N2CCn3c(nc(-c4ccc(F)cc4)c3Nc3ccc(C)cc3)C2)cc1 [Compound 160]	5.62	5.36
Cc1ccc(Nc2c(-c3ccc(F)cc3)nc3n2CCN(C(=O)CN(CCO)CCO)C3)cc1 [Compound 161]	6.29	6.27
Cc1ccc(Nc2c(-c3ccc(F)cc3)nc3n2CCN(C(=O)[C@@H]2CC(=O)N2)C3)cc1 [Compound 162]	5.86	5.75
Cc1ccc(Nc2c(-c3ccc(F)cc3)nc3n2CCN(C(=O)[C@@H](N)CO)C3)cc1 [Compound 163]	7.59	7.70
Cc1ccc(Nc2c(-c3ccc(F)cc3)nc3n2CCN(C(=O)[C@H](CO)NC(=O)C(F)(F)F)C3)cc1 [Compound 164]	5.43	< 5.01
Cc1ccc(Nc2c(-c3ccc(F)cc3)nc3n2CCN(C(=O)c2cc(=O)[nH]c(=O)[nH]2)C3)cc1 [Compound 165]	5.33	< 4.99
Cc1ccc(Nc2c(-c3ccc(F)cc3)nc3n2CCN(C(=O)CNC(N)=O)C3)cc1 [Compound 166]	5.65	5.54
Cc1ccc(Nc2c(-c3ccc(F)cc3)nc3n2CCN(C(=O)CNC(=N)N)C3)cc1 [Compound 167]	6.84	6.74
Cc1ccc(Nc2c(-c3ccc(F)cc3)nc3n2CCN(C(=O)CNc2ccccc2)C3)cc1 [Compound 168]	7.96	8.00
Cc1ccc(Nc2c(-c3ccc(F)cc3)nc3n2CCN(C(=O)[C@@H](N)C(C)(C)C)C3)cc1 [Compound 170]	7.27	7.05
Cc1ccc(Nc2c(-c3ccc(F)cc3)nc3n2CCN(C(=O)C[C@@H](N)Cc2ccc(Br)cc2)C3)cc1 [Compound 171]	6.67	6.77

SMILES	pEC50 [1]	pEC50 [2]
Cc1ccc(Nc2c(-c3ccc(F)cc3)nc3n2CCN(C(=O)C[C@@H](N)Cc2cc(F)c(F)cc2F)C3)cc1 [Compound 172]	7.06	7.00
Cc1ccc(Nc2c(-c3ccc(F)cc3)nc3n2CCN(C(=O)C(C)c2ccc(Cl)cc2)C3)cc1 (centres unmarked) [Compound 173]	6.88	6.85
Cc1ccc(Nc2c(-c3ccc(F)cc3)nc3n2CCN(C(=O)C(C)(C)c2ccc(Cl)cc2)C3)cc1 [Compound 174]	5.83	5.22
Cc1ccc(Nc2c(-c3ccc(F)cc3)nc3n2CCN(C(=O)[C@@H](C)c2ccccc2)C3)cc1 [Compound 175]	6.98	7.10
Cc1ccc(Nc2c(-c3ccc(F)cc3)nc3n2CCN(C(=O)[C@@H]2Cc4[nH]cnc4CN2)C3)cc1 [Compound 176]	5.75	5.56
Cc1ccc(Nc2c(-c3ccc(F)cc3)nc3n2CCN(C(=O)[C@H](Cc2ccccc2)N(C)C)C3)cc1 [Compound 177]	6.37	6.37
Cc1ccc(Nc2c(-c3ccc(F)cc3)nc3n2CCN(C(=O)CN2CCC(CCN)CC2)C3)cc1 [Compound 178]	5.48	5.52
Cc1ccc(Nc2c(-c3ccc(F)cc3)nc3n2CCN(Cc2ccc(S(C)(=O)=O)cc2)C3)cc1 [Compound 179]	5.97	5.32
Cc1ccc(Nc2c(-c3ccc(F)cc3)nc3n2CCN(Cc2ccc(N4CCOCC4)cc2)C3)cc1 [Compound 180]	6.22	6.14
CCN(CC)c1ccc(CN2CCn3c(nc(-c4ccc(F)cc4)c3Nc3ccc(C)cc3)C2)cc1 [Compound 182]	5.97	5.86
Cc1ccc(Nc2c(-c3ccc(F)cc3)nc3n2CCN(Cc2ccc(OCCCN(C)C)cc2)C3)cc1 [Compound 183]	5.87	5.72
Cc1ccc(Nc2c(-c3ccc(F)cc3)nc3n2CCN(Cc2ccc(-c4ccncc4)cc2)C3)cc1 [Compound 184]	6.07	5.44
CCC(=O)Nc1ccc(C[C@H](NC(=O)OC(C)(C)C)C(=O)N2CCn3c(nc(-c4ccc(F)cc4)c3Nc3ccc(C)cc3)C2)cc1 [Compound 185]	6.87	6.46
CCCNC(=O)C[C@H](NC(=O)OC(C)(C)C)C(=O)N1CCn2c(nc(-c3ccc(F)cc3)c2Nc2ccc(C)cc2)C1 [Compound 186]	5.59	5.25
CCC(=O)Nc1ccc(C[C@H](N)C(=O)N2CCn3c(nc(-c4ccc(F)cc4)c3Nc3ccc(C)cc3)C2)cc1 [Compound 187]	5.45	5.18
CCCNC(=O)CC[C@H](N)C(=O)N1CCn2c(nc(-c3ccc(F)cc3)c2Nc2ccc(C)cc2)C1 [Compound 188]	5.96	6.10
CCCNC(=O)C[C@H](N)C(=O)N1CCn2c(nc(-c3ccc(F)cc3)c2Nc2ccc(C)cc2)C1 [Compound 189]	6.41	6.43
Cc1ccc(Nc2c(-c3ccc(F)cc3)nc3n2CCN(C(=O)CC(N)C(F)(F)F)C3)cc1 (centres unmarked) [Compound 190]	5.97	6.03
Fc1ccc(Nc2c(-c3cccc(F)c3)nc3n2CCNC3)cc1 [Compound 191]	6.82	6.77
Fc1ccc(-c2nc3n(c2Nc2ccc(Cl)c(F)c2)CCNC3)cc1 [Compound 192]	7.02	6.96
Cc1ccc(Nc2c(-c3ccc(F)cc3)nc3n2CCN(C(=O)[C@H]2CCC[C@H]2N)C3)cc1 [Compound 193]	7.12	7.05
